From US4725578A, “Compounds having therapeutic effect and the preparation thereof” (Tobishi Pharmaceutical Co., Ltd., priority 1986, dated 1988)

What was measured:
Colon 26 = Colon 26 (ip-ip), survival T/C; assay type: in vivo; conditions: 4 mg/kg × 9
Description: (§1) In the Table, the symbol T/C % means Treatment/Control %, that is the increase in life when the control is 100. The values are obtained by implanting tumor cells to groups of mice (or rats), administering the compound being tested in various amounts every 24 hours after the implantation of the tumor cells and then calculating the ratio, the median survival time of the group to which the compound has been administered to the survival of the control, multiplied by a factor of 100. This method is used in the screening of U.S. National Cancer Institute.

B-16 melanoma = experiment: B16 melanoma (ip-ip), survival T/C; assay type: in vivo, mice
Description: as §1, with “Institute. […]” for “Institute.”
(§2) In Table 7, the symbol "i.P.-i.P." means that the tumor cells are implanted intraperitoneally and the compounds being tested are also administered intraperitoneally. The symbol "TR" is the therapeutic ratio obtained by dividing the dose which provides a maximum T/C value, by the dose which provides a minimum T/C value.

Yoshida sarcoma = Yoshida sarcoma (ip-ip), survival T/C; assay type: in vivo
Description: as §1

P-388 cells = experiment: Antineoplastic action against implanted P-388 cells (ip-ip), survival T/C; assay type: in vivo, CDFl mice; conditions: for T/C % (Treatment/Control %): Table 6, P388, intraperitoneal
Description: To the peritoneal cavity of each group of mice consisting of six CDFl mice per group, 10^6 /0.1 ml of P-388 cells or 10^5 /0.1 ml of L-1210 cells were implanted. […]
In the Table, the symbol T/C % means Treatment/Control %, that is the increase in life when the control is 100. […] This method is used in the screening of U.S. National Cancer Institute.
as §2

MM2 = MM2 (ip-ip), survival T/C; assay type: in vivo, mice; conditions: for mice continuing to live more than 60 days after implantation (60<): Table 7, MM2 (i.P. - i.P.)
Description: as §1, with “Institute. […]” for “Institute.”
as §2
The term in Table 7, last column "3/6 60<", means that 3 mice out of 6 mice continue to live more than 60 days after the implantation of the tumor cells.

P 388 = P 388 (ip-iv), survival T/C; assay type: in vivo, mice; conditions: 5 mg/kg × 5
Description: as §1
In Table 9, "iv" and "sc" means that the administration of the compounds is carried out intravenously and the implantation of the tumor cells is carried out subcutaneously.

MOPC-104E = MOPC-104E (ip-ip), survival T/C; assay type: in vivo; conditions: 2 mg/kg × 9 times
Description: as §1

L-1210 cells = experiment: Antineoplastic action against implanted L-1210 cells (ip-ip), survival T/C; assay type: in vivo, CDFl mice
Description: In this animal test, the antineoplastic action against the implanted tumor was examined in lower animals, in vivo, in respect of the compounds according to the present invention, by using CDFl mice.
To the peritoneal cavity of each group of mice consisting of six CDFl mice per group, 10^6 /0.1 ml of P-388 cells or 10^5 /0.1 ml of L-1210 cells were implanted. […] While to the control groups of CDFl mice, P-388 and L-1210 cells were implanted in the same manner and they were bred without administration of the compounds.
as §1, §2

CCCCCCOc1ccc2cc1Oc1ccc(cc1)CC1C(=O)N(C)C(C2)C(=O)NC(C)C(=O)NC(C)C(=O)N(C)C(Cc2ccc(OC)cc2)C(=O)NC(C)C(=O)N1C (stereo not shown) [Ex. 2, n-hexylether of the compound TPC-A]
T/C (Colon 26): 133.7%
mice living more than 60 days (60<) (Colon 26): 2/6
effectiveness against B-16 melanoma (B-16 melanoma; (see Table 7)): effective
B16 (i.P. - i.P.) T/C (%) (B-16 melanoma; Table 7, dose 0.5 mg/kg): 130.5%
B16 (i.P. - i.P.) T/C (%) (B-16 melanoma; Table 7, dose 2 mg/kg): 158.2%
B16 (i.P. - i.P.) T/C (%) (B-16 melanoma; Table 7, dose 4 mg/kg): 136.2%
T/C (Yoshida sarcoma; 0.1 mg/kg × 5): 129.7%
T/C (Yoshida sarcoma; 0.5 mg/kg × 5): 173.6%
T/C (Yoshida sarcoma; 1 mg/kg × 5): 160.4%
T/C (Yoshida sarcoma; 2.5 mg/kg × 5): 149.5%
T/C % (Treatment/Control %) (P-388 cells; dose 0.05 mg/kg): 110.3%
T/C % (Treatment/Control %) (P-388 cells; dose 0.5 mg/kg): 137.3%
T/C % (Treatment/Control %) (P-388 cells; dose 2 mg/kg): 153.5%
T/C % (Treatment/Control %) (P-388 cells; dose 4 mg/kg): 173.0%
P388 (i.P. - i.P.) T/C (%) (P-388 cells; Table 7, dose 0.05 mg/kg): 130.4%
P388 (i.P. - i.P.) T/C (%) (P-388 cells; Table 7, dose 0.5 mg/kg): 143.5%
P388 (i.P. - i.P.) T/C (%) (P-388 cells; Table 7, dose 2 mg/kg): 150.0%
P388 (i.P. - i.P.) T/C (%) (P-388 cells; Table 7, dose 5 mg/kg): 176.1%
effectiveness against MM2 (MM2; (see Table 7)): effective
mice continuing to live more than 60 days after implantation (60<) (MM2; dose 2 mg/kg): 3/6
mice continuing to live more than 60 days after implantation (60<) (MM2; dose 4 mg/kg): 1/7
MM2 (i.P. - i.P.) T/C (%) (MM2; Table 7, dose 0.5 mg/kg): 110.3%
MM2 (i.P. - i.P.) T/C (%) (MM2; Table 7, dose 2 mg/kg): 129.3%
MM2 (i.P. - i.P.) T/C (%) (MM2; Table 7, dose 4 mg/kg): 161.8%
T/C (P 388): 118.9%
T/C (MOPC-104E): 145.3%
L1210 (i.P. - i.P.) T/C (%) (L-1210 cells; Table 7, dose 0.5 mg/kg): 115.6%
L1210 (i.P. - i.P.) T/C (%) (L-1210 cells; Table 7, dose 2 mg/kg): 126.6%
L1210 (i.P. - i.P.) T/C (%) (L-1210 cells; Table 7, dose 4 mg/kg): 130.9%

CCOc1ccc2cc1Oc1ccc(cc1)CC1C(=O)N(C)C(C2)C(=O)NC(C)C(=O)NC(C)C(=O)N(C)C(Cc2ccc(OC)cc2)C(=O)NC(C)C(=O)N1C (stereo not shown) [Ex. 3]
T/C % (Treatment/Control %) (P-388 cells; dose 0.05 mg/kg): 137.3%
T/C % (Treatment/Control %) (P-388 cells; dose 0.5 mg/kg): 165.4%
T/C % (Treatment/Control %) (P-388 cells; dose 2 mg/kg): 162.2%

COc1ccc(CC2C(=O)NC(C)C(=O)N(C)C3Cc4ccc(cc4)Oc4cc(ccc4OC(C)C)CC(C(=O)NC(C)C(=O)NC(C)C(=O)N2C)N(C)C3=O)cc1 (stereo not shown) [Ex. 5]
T/C % (Treatment/Control %) (P-388 cells; dose 0.05 mg/kg): 142.4%
T/C % (Treatment/Control %) (P-388 cells; dose 0.5 mg/kg): 175.1%
T/C % (Treatment/Control %) (P-388 cells; dose 2 mg/kg): 105.4%

CCCCCOc1ccc2cc1Oc1ccc(cc1)CC1C(=O)N(C)C(C2)C(=O)NC(C)C(=O)NC(C)C(=O)N(C)C(Cc2ccc(OC)cc2)C(=O)NC(C)C(=O)N1C (stereo not shown) [Ex. 7]
T/C % (Treatment/Control %) (P-388 cells; dose 0.05 mg/kg): 122.2%
T/C % (Treatment/Control %) (P-388 cells; dose 0.5 mg/kg): 142.7%
T/C % (Treatment/Control %) (P-388 cells; dose 2 mg/kg): 165.4%

CCCCCCCOc1ccc2cc1Oc1ccc(cc1)CC1C(=O)N(C)C(C2)C(=O)NC(C)C(=O)NC(C)C(=O)N(C)C(Cc2ccc(OC)cc2)C(=O)NC(C)C(=O)N1C (stereo not shown) [Ex. 8]
T/C % (Treatment/Control %) (P-388 cells; dose 0.05 mg/kg): 115.8%
T/C % (Treatment/Control %) (P-388 cells; dose 0.5 mg/kg): 144.7%
T/C % (Treatment/Control %) (P-388 cells; dose 2 mg/kg): 150.1%
T/C % (Treatment/Control %) (P-388 cells; dose 4 mg/kg): 164.0%

CCCCCCCCOc1ccc2cc1Oc1ccc(cc1)CC1C(=O)N(C)C(C2)C(=O)NC(C)C(=O)NC(C)C(=O)N(C)C(Cc2ccc(OC)cc2)C(=O)NC(C)C(=O)N1C (stereo not shown) [Ex. 9]
T/C % (Treatment/Control %) (P-388 cells; dose 0.05 mg/kg): 136.1%
T/C % (Treatment/Control %) (P-388 cells; dose 0.5 mg/kg): 146.8%
T/C % (Treatment/Control %) (P-388 cells; dose 2 mg/kg): 162.9%
T/C % (Treatment/Control %) (P-388 cells; dose 4 mg/kg): 152.2%

CCCCCCCCCOc1ccc2cc1Oc1ccc(cc1)CC1C(=O)N(C)C(C2)C(=O)NC(C)C(=O)NC(C)C(=O)N(C)C(Cc2ccc(OC)cc2)C(=O)NC(C)C(=O)N1C (stereo not shown) [Ex. 10]
T/C % (Treatment/Control %) (P-388 cells; dose 0.05 mg/kg): 112.5%
T/C % (Treatment/Control %) (P-388 cells; dose 0.5 mg/kg): 141.5%
T/C % (Treatment/Control %) (P-388 cells; dose 2 mg/kg): 150.1%
T/C % (Treatment/Control %) (P-388 cells; dose 4 mg/kg): 155.4%

CCOC(=O)CCCOc1ccc2cc1Oc1ccc(cc1)CC1C(=O)N(C)C(C2)C(=O)NC(C)C(=O)NC(C)C(=O)N(C)C(Cc2ccc(OC)cc2)C(=O)NC(C)C(=O)N1C (stereo not shown) [Ex. 19(2), ethoxycarbonylpropylether (2) of TPC-A]
T/C % (Treatment/Control %) (P-388 cells; dose 0.05 mg/kg): 113.8%
T/C % (Treatment/Control %) (P-388 cells; dose 0.5 mg/kg): 139.6%
T/C % (Treatment/Control %) (P-388 cells; dose 2 mg/kg): 141.7%
T/C % (Treatment/Control %) (P-388 cells; dose 4 mg/kg): 153.1%

COc1ccc(CC2C(=O)NC(C)C(=O)N(C)C3Cc4ccc(cc4)Oc4cc(ccc4OC4CCCCO4)CC(C(=O)NC(C)C(=O)NC(C)C(=O)N2C)N(C)C3=O)cc1 (stereo not shown) [Ex. 20, tetrahydropyranylether of TPC-A]
T/C % (Treatment/Control %) (P-388 cells; dose 0.05 mg/kg): 138.4%
T/C % (Treatment/Control %) (P-388 cells; dose 0.5 mg/kg): 164.3%
T/C % (Treatment/Control %) (P-388 cells; dose 2 mg/kg): 121.1%

CCC(=O)Oc1ccc2cc1Oc1ccc(cc1)CC1C(=O)N(C)C(C2)C(=O)NC(C)C(=O)NC(C)C(=O)N(C)C(Cc2ccc(OC)cc2)C(=O)NC(C)C(=O)N1C (stereo not shown) [Ex. 23]
T/C % (Treatment/Control %) (P-388 cells; dose 0.05 mg/kg): 129.0%
T/C % (Treatment/Control %) (P-388 cells; dose 0.5 mg/kg): 145.3%
T/C % (Treatment/Control %) (P-388 cells; dose 2 mg/kg): 164.4%
T/C % (Treatment/Control %) (P-388 cells; dose 10 mg/kg): 175.0%
